Experimental findings from PMC4418694, “Crystal Structure of Fad35R from Mycobacterium tuberculosis H37Rv in the Apo-State” (PLoS ONE, 2015) are described below.

The target of the assay is T1, Fad35R (Mycobacterium tuberculosis, UniProt O06169).
T1 construct: gene Rv2506
T1 sequence (O06169 entry or part of it): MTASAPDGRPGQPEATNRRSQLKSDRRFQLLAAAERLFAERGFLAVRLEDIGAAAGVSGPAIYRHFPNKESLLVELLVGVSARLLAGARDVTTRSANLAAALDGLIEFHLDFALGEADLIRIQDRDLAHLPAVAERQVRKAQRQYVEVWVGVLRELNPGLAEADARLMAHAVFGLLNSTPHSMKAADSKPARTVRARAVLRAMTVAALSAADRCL

With `CN(C)[C@@H]1C(=O)C(C(N)=O)=C(O)[C@@]2(O)C(=O)C3=C(O)c4c(O)cccc4[C@@](C)(O)[C@H]3C[C@@H]12` [tetracycline], the “ligand-induced oligomerization: dynamic light scattering, size-exclusion chromat” value is “Tc bound Fad35R has the propensity to form higher oligomers”.
